Values of other authors, collected in patent publication US11167002B2, “Pharmaceutical composition for the treatment of malignant neoplasms including sarcoma, cancers of liver, lung, bladder, blood and cervical, treatment of infectious diseases and type 2 diabetes” (priority 2019, dated 2021).

Tests used:
[1] = test system: Gram-negative and Gram-positive bacteria, including multidrug-resistant enterotoxigenic strains of Escherichia coli; conditions: allicin in pure form
Candida albicans = conditions: allicin in pure form
[2] = test system: Entamoeba histolytica and Giardia lamblia; conditions: allicin in pure form
[3] = allicin in pure form

## C=CCS[S+]([O-])CC=C (stereo not shown) [Allicin]
[1]
  antibacterial activity: antibacterial activity
Candida albicans
  antifungal activity: antifungal activity
[2]
  antiparasitic activity: antiparasitic activity
[3]
  antiviral activity: antiviral activity
